The values that follow are results of earlier work, collected in paper PMC12319374, “Efficient and Rapid Arylation of NH₂‐Unprotected Bromobisindole Ethanamines via Suzuki‐Miyaura Coupling: Generating New Leads Against Leishmania” (Chemistry (Weinheim an Der Bergstrasse, Germany), 2025).

Molecules are shown by their SMILES.

The test system of data set [1] is L. infantum promastigotes. Particulars: read-out: IC50 against L. infantum promastigotes; cited from earlier work.
A further data set relates to mammalian cells. The arrangement: method as in PMID 34984300. To be noted: cited from earlier work.
Details of data set [2]: method as in PMID 38870204. To be noted: cited from earlier work.
The next data set concerns Leishmania infection. The arrangement: method as in PMID 38870204. Particulars: mouse infection model; cited from earlier work.
Data set [3] has as its system human macrophage‐type THP‐1 cell. The arrangement: method as in PMID 38870204. Particulars: cited from earlier work.

Broadly, the IC50 is the concentration that inhibits the measured activity by half. Turning to `CCOC(=O)c1c(C(=O)OC)cn(CC(c2cn(C)c3ccccc23)c2cn(C)c3ccccc23)c1C` [URB1483], the half-inhibitory concentration (IC50) in data set [1] was 3.7 µM. Moreover, the “Cytotoxicity in mammalian cells” value in the data set on mammalian cells was “no quantifiable cytotoxicity”. In data set [2], the Water solubility entry is “poor”. The “Outcome of in vivo studies” value in the data set with Leishmania infection was “failed”.

By CC50 is commonly meant the concentration giving 50% cytotoxicity. With `Clc1ccc(CNCC(c2c[nH]c3cc(Br)ccc23)c2c[nH]c3cc(Br)ccc23)cc1` [I], the CC50 in data set [3] was 11.7 µM. Besides, the IC50 in data set [1] is 2.7 µM.
